Data as given in publication PMC5963591, “Bitopic Binding Mode of an M1 Muscarinic Acetylcholine Receptor Agonist Associated with Adverse Clinical Trial Outcomes” (Molecular Pharmacology, 2018).

Assays:
[1] = test system: rodents; set-up: method as in Budzik et al., 2010; conditions: ref Budzik et al., 2010; cited from earlier work
[2] = biological target: T1, humanized M1 DREADD (Homo sapiens, UniProt P11229, A196G/Y106C); assay: IP1 accumulation and ERK1/2 phosphorylation at M1 DREADD, CHO Flp-In cells; type: cell-based
T1 construct: expressed in transfected cells; host or cells: CHO Flp-In
T1 sequence (P11229 whole entry Y106C/A196G): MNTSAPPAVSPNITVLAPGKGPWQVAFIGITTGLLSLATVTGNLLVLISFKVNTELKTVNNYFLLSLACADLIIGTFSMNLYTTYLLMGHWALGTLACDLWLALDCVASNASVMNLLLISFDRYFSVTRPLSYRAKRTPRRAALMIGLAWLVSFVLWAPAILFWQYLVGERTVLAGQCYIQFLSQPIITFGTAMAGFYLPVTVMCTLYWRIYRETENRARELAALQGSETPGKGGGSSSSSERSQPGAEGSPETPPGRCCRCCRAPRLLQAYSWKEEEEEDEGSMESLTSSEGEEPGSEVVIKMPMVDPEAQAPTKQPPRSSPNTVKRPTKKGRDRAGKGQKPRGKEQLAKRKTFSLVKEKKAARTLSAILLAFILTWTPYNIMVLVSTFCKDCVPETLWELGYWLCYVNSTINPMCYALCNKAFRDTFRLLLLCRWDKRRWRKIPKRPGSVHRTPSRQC

[3] = biological target: T2, human mAChR M3 (Homo sapiens, UniProt P20309); assay: [3H]-NMS competition binding, CHO membranes, M3; conditions: compared with other subtypes
T2 construct: purchased PerkinElmer; host or cells: CHO
T2 sequence (P20309 whole entry): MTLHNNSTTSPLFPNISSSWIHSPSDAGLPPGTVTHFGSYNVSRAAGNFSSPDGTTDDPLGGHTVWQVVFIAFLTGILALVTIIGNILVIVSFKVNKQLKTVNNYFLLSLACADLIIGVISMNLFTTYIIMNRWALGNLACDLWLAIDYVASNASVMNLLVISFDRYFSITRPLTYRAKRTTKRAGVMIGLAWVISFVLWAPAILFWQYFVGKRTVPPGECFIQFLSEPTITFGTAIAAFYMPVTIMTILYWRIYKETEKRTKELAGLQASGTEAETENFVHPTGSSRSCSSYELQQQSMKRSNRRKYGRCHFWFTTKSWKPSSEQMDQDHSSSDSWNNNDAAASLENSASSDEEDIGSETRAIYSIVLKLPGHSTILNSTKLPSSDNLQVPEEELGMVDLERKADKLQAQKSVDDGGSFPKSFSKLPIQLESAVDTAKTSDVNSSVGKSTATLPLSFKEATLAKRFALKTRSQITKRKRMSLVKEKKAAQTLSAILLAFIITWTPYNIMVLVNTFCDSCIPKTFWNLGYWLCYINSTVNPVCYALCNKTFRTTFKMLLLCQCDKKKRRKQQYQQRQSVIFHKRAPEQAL
Experimental: (§1) For competition binding experiments at M1, M2, M3, M4, and M5 mAChRs, CHO membranes were purchased from PerkinElmer. All experiments were performed in assay buffer of the following composition: 20 mM HEPES, 100 mM NaCl, and 10 mM MgCl2, pH 7.5, and used 10 µg protein/well in a total assay volume of 1 ml using deep well blocks. […] All assay incubations were initiated by the addition of membrane suspensions and deep well blocks were shaken for 5 minutes to ensure complete mixing. Incubation was then carried out for 2 hours at 21°C. Binding reactions were terminated by rapid filtration through GF/A filters (PerkinElmer) presoaked with 0.5% (w/v) polyethylenimine for 1 hour. Filters were then washed three times with 1 ml ice-cold assay buffer.
(§2) Inhibition binding data were curve-fit using GraphPad Prism 6 to derive the potency (IC50) of the test compound. The equilibrium dissociation constant (KI) of the test compound was then calculated with the Cheng–Prusoff equation: KI = IC50/[1 + ([L]/KD)] using the KD value derived separately from saturation binding studies.

[4] = biological target: T3, human mAChR M1 (Homo sapiens, UniProt P11229); assay: [3H]-NMS competition binding, CHO membranes, M1
T3 construct: purchased PerkinElmer; host or cells: CHO
T3 sequence (P11229 whole entry): as the sequence (P11229 whole entry Y106C/A196G) above, with C106Y, G196A counted along it
Experimental: as §1, §2

[5] = biological target: T4, M1 DREADD (Homo sapiens, UniProt P11229, A196G/Y106C); assay: Receptor phosphorylation at serine 228, M1 DREADD, CHO Flp-In cells; type: cell-based; conditions: compared with wild type
T4 construct: HA; expressed in transfected cells; host or cells: CHO Flp-In
T4 sequence (P11229 whole entry Y106C/A196G): as the sequence (P11229 whole entry Y106C/A196G) above

[6] = biological target: T5, M2 mAChR (isolated rat atria) (Rattus norvegicus, UniProt P10980); assay: Isolated rat atria, negative inotropic response; conditions: single experiment
T5 construct: from tissue; host or cells: left atria of adult Wistar rats
T5 sequence (P10980 1-466): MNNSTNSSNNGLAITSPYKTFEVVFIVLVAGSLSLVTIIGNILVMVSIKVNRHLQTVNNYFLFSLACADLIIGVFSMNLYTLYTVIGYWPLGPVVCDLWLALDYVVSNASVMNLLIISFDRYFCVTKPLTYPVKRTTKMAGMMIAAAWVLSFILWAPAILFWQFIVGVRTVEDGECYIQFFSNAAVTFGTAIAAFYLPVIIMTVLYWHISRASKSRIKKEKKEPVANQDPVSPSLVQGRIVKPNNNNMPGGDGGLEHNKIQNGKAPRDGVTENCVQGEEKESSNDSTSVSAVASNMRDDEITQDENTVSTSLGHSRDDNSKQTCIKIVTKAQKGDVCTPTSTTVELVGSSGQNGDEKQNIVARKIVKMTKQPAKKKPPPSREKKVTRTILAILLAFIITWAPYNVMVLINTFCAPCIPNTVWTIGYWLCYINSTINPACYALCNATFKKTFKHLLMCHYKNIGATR
Experimental: (§3) Adult Wistar rats were humanely euthanized and the left atria and the ileum were placed in an organ bath containing oxygenated Tyrode solution. Measurement of negative inotropic responses in atria or contraction of ileum was performed as described by [Lambrecht et al. (1989)]. For atrial responses, ligands were administered for 5 minutes at 32°C in McEwen’s buffer (pH 7.4) in a bath volume of 10 ml. […] For rat ileum experiments, ligands were administered for 5 minutes at 32°C in Krebs’ buffer (pH 7.4) in a bath volume of 10 ml. Contraction of ileum as a percentage of methacholine-induced contraction was measured, and antagonistic effects were measured by inhibition of methacholine-induced responses.

[7] = biological target: T6, wild-type M1 mAChR (Homo sapiens, UniProt P11229); assay: Receptor phosphorylation at serine 228, M1 wild type, CHO Flp-In cells; type: cell-based
T6 construct: HA; expressed in transfected cells; host or cells: CHO Flp-In
T6 sequence (P11229 whole entry): as the sequence (P11229 whole entry Y106C/A196G) above, with C106Y, G196A counted along it

[8] = biological target: T7, human mAChR M4 (Homo sapiens, UniProt P08173); assay: [3H]-NMS competition binding, CHO membranes, M4
T7 construct: purchased PerkinElmer; host or cells: CHO
T7 sequence (P08173 whole entry): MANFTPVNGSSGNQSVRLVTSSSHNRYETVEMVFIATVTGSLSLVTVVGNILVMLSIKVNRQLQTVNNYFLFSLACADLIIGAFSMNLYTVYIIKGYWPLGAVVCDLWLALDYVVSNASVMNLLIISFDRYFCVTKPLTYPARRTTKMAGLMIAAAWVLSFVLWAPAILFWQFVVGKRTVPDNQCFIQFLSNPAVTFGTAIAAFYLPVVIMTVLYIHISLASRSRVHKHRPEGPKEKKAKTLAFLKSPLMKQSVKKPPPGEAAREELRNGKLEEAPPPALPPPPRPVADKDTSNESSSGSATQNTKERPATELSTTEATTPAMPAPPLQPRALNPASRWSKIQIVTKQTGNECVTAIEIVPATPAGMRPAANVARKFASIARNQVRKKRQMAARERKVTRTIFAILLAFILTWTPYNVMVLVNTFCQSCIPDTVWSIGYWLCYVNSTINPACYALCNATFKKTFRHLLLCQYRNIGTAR
Experimental: as §1, §2

[9] = biological target: T8, M3 mAChR (isolated rat ileum) (Rattus norvegicus, UniProt P08483); assay: Isolated rat ileum contraction; conditions: single experiment
T8 construct: from tissue; host or cells: ileum of adult Wistar rats
T8 sequence (P08483 whole entry): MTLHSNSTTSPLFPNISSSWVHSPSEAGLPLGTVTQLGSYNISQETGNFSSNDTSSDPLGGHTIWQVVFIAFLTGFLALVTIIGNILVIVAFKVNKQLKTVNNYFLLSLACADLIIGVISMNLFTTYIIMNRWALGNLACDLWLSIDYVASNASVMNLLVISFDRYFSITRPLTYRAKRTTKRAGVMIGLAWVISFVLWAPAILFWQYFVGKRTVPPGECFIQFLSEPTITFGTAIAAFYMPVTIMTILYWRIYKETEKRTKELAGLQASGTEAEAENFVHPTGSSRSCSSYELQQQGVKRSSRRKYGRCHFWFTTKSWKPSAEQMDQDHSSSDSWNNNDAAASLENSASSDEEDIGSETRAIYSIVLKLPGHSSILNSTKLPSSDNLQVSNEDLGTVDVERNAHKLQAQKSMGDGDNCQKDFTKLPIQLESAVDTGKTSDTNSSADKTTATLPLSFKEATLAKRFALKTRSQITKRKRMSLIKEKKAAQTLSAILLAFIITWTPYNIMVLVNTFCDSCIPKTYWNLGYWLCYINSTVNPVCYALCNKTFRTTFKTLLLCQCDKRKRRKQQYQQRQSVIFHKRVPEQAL
Experimental: as §3

[10] = biological target: [35S]-GTPγS Gαq binding in rat cortex membranes; assay: Native tissue GTPγ[35S] binding assay (Gαq antibody capture); type: biochemical
Experimental: GTPɣ-[^35S] ([^35S]ɣ[guanosine-5′-O-(3-[^35S]thio)triphosphate] binding in rat membranes was determined in triplicate using an antibody capture technique in 96-well plate format (DeLapp et al., 1999). Native rat membranes were prepared as follows. All procedures were performed at 4°C. Ten to fifteen milliliters of sucrose buffer (10 mM HEPES, 1 mM EGTA, 1 mM dithiothreitol, 10% sucrose, and one tablet/50 ml Complete Protease Inhibitor Cocktail, pH 7.4) was added to each tissue sample and homogenized for 10 strokes using an electric IKA RW20 homogenizer (800 rpm) (IKA, Staufen, Germany) with glass homogenizer. The homogenate was centrifuged at 1000g for 10 minutes at 4°C and the supernatant collected. The pellet was rehomogenized and centrifuged again as above and the supernatant pooled and centrifuged at 11,000g for 20 minutes at 4°C. The resulting pellet was suspended in 40 ml final storage buffer (10 mM HEPES, 1 mM EGTA, 1 mM MgCl2, and 1 mM dithiothreitol, pH 7.4) and centrifuged at 27,000g for 20 minutes at 4°C. The supernatant was removed and the final pellet was suspended in 2 ml final storage buffer. The protein concentration was measured using the Bradford method (Coomassie Plus, Bio-Rad protein assay kit; Bio-Rad, Hercules, CA) with bovine gamma globulin standards. […] Plates were counted for 1 minute/well using a Wallac MicroBeta Trilux scintillation counter (PerkinElmer). […]

Cc1cc(F)c2[nH]c(=O)n(C3CCN(C4CCOCC4)CC3)c2c1 [GSK1034702, 7-fluoro-5-methyl-3-[1-(oxan-4-yl)piperidin-4-yl]-1H-benzimidazol-2-one]
effect on scopolamine-induced amnesia [1]: reversed scopolamine-induced amnesia | potency and efficacy at the M1 DREADD compared with the wild-type receptor [2]: comparable potency and efficacy | affinity for the M3 mAChR [3]: much lower affinity | Ki [4]: 1 µM | phosphorylation at serine 228 [5]: unchanged | IC50 ([6]; methacholine 1 μM, read-out: IC50, inhibition of methacholine-induced responses in rat atria): 8 µM | maximal negative inotropic response in rat atria ([6]; relative to methacholine): maximal response equivalent to that of methacholine | potency, negative inotropic response in rat atria [6]: micromolar potency | pSer228 immunoreactivity [7]: concentration-dependent increase | Ki [8]: 2 µM | EC50 [9]: 7 µM | rat ileum contraction, % of maximal methacholine-induced contraction [9]: approximately 50% | IC50 ([9]; read-out: IC50, inhibition of methacholine-induced contraction of rat ileum): 46 µM | pEC50, [^35S]-GTPγS Gαq binding [10]: 6.7 ± 0.1 | [^35S]-GTPγS Gαq binding, maximum relative to oxotremorine-M ([10]; % of maximum elicited by oxotremorine-M): approximately 37%
